Test results as given in patent US8877738B2, “Antipathogenic peptides” (priority 2009, dated 2014).
Values after ≈ are worked out from the molar mass of the structure shown. Ends that are not written are not given here.

Experiments:
HIV-1IIIb = HIV-1IIIb replication in C8166 cells (RNA load by real time RT-PCR, p24 ELISA); type: cell-based; settings: day 7 post-infection, 0.1-20 μg/ml
From the text: FIG. 8: Quantitative real time RT-PCR analysis of HIV-1 RNA load in HIV-1 infected C8166 cell culture supernatants at day 7 post infection. […] The data are reported as means±SD of three independent experiments performed in duplicate.
FIG. 9: ELISA HIV-1 p24 protein analysis in HIV-1 infected C8166 cell culture supernatants at day 7 post infection. […] The data are reported as means±SD of three independent experiments performed in duplicate.
HIV-1 RNA viral load and HIV-1 gag p24 content were determined at day 7 post-infection in the culture supernatants in three independent experiments performed in duplicate. HIV-1 RNA was extracted by Roche high pure viral nucleic acid kit (Roche, Mannheim, Germany) from 200 μl of culture supernatants and then RNA load was assessed by quantitative real time RT-PCR as previously described (Gibellini et al., 2004). In parallel, HIV-1 gag p24 protein amount was determined by ELISA HIV-1 p24 antigen kit (Biomerieux Marcy L'Etoile, France).

HSV-1 = HSV-1 attachment (adsorption) assay on Vero cells; type: cell-based; settings: compound present during adsorption, 3 h at 4° C., 200 PFU; plaques after 48 h
Experimental: (§1) FIG. 3. The dendrimeric peptides SB105 and SB105-A10 inhibit HSV-1 and HSV-2 attachment to Vero cells. Pre-chilled Vero cells were incubated at 4° C. with different concentrations of SB105, SB105-A10, SB104 or heparin and with 200 PFU of HSV-1 or HSV-2. Following virus adsorption (3 h at 4° C.), cells were then washed with cold PBS three times to remove compound and unadsorbed viruses, overlaid with medium containing 1.2% methylcellulose and incubated at 37° C. for 48 h. Viral plaques were then stained and counted, and the mean plaque counts for each peptide concentration expressed as a percentage of the mean count of the controls. The data shown represent means±SD of three independent experiments (error bars).
(§2) Following virus adsorption (3 h at 4° C., a condition that is known to allow virus adsorption only), cells were then washed with cold PBS three times to remove compound and unadsorbed viruses, overlaid with medium containing 1.2% methylcellulose and incubated at 37° C. Forty eight hours later, plates were fixed and stained with crystal violet and the viral plaques counted.

HSV-2 = HSV-2 attachment (adsorption) assay on Vero cells; type: cell-based; settings: compound present during adsorption, 3 h at 4° C., 200 PFU; plaques after 48 h
Experimental: as §1, §2

HCMV AD169 = assay: HCMV attachment (adsorption) assay on HELF cells; type: cell-based; settings: compound present during adsorption, 3 h at 4° C., 200 PFU AD169; plaques after 6 days
Experimental: FIG. 6. HCMV adsorption to target cells is inhibited by SB105 and SB105-A10 dendrimeric peptides. Pre-chilled HELF cells were incubated at 4° C. with different concentrations of SB105, SB105-A10, SB104 or heparin and with 200 PFU of HCMV AD169. Following virus adsorption (3 h at 4° C.), cells were washed with cold PBS three times to remove compound and unadsorbed viruses, overlaid with medium containing 1.2% methylcellulose and incubated at 37° C. for 6 days. Viral plaques were then stained and counted and the mean plaque counts for each peptide concentration were expressed as a percentage of the mean count of the controls. The data shown represent means±SD of three independent experiments (error bars).
After 24 h, they were prechilled to 4° C. and incubated in duplicate at 4° C. with different concentrations of SB105, SB105_A10, SB104 (as negative control for inhibition of viral replication) or heparin (as a positive control for inhibition of viral adsorption) and with 200 PFU of HCMV AD169. Following virus adsorption (3 h at 4° C., a condition that is known to allow virus adsorption only), cells were then washed with cold PBS three times to remove compound and unadsorbed viruses, overlaid with medium containing 1.2% methylcellulose and incubated at 37° C. for 6 days. Plates were then fixed and stained with crystal violet and the viral plaques counted.

HPV-16 PsV = settings: HPV-16-SEAP PsV preincubated with peptide, 293TT cells, 72 h post-infection
From the text: HPV-16 PsV were produced according to previously described methods (Buck et al., 2005). Briefly, 293TT cells were transfected with the plasmid p16sheLL expressing the papillomavirus major and minor capsid proteins (L1 and L2) together with a reporter plasmid expressing the secreted alkaline phosphatase (SEAP) or the green fluorescence protein (GFP) named pYSEAP or pfwB respectively. Capsids were allowed to mature overnight in cell lysate; the clarified supernatant was then loaded on top of a 27-33-39% Optiprep (Sigma-Aldrich, St. Louis, Mo., USA) density gradient at room temperature for 4 h. […] The L1 protein content of PsV stocks was determined by comparison with bovine serum albumin standards in Coomassie-stained SDS-PAGE gels.
For the Secreted Embryonic Alkaline Phosphate (SEAP)-based assays 293TT cells were preplated 3-4 h in advance in 96-well tissue culture-treated flat bottom plates at a density of 30,000 cells/well in 100 μl neutralization buffer (DMEM without phenol red, 10% heat-inactivated FBS, 1% glutamate, 1% nonessential amino acids, 1% penicillin-streptomycin-fungizone, and 10 mM HEPES). […] The SEAP content in the clarified supernatant was determined using a Great ESCAPE SEAP Chemiluminescence Kit (BD Clontech, Mountain View, Calif., USA) as directed by the manufacturer. […]

[1] = tested on: HCMV laboratory strain AD169; settings: HELFs, M.O.I. 1, treated 1 h before and during infection, 6 days p.i.
Experimental: (§3) FIGS. 4A and 4B. […] HUVECs were infected with the endotheliotropic and clinical HCMV isolate VR1814 (FIG. 4B) at a M.O.I of 1. The extent of AD169 or AU replication was then assessed by titrating the infectivity of supernatants of HELF suspensions by standard plaque assay. The extent of VR1814 replication was measured by titrating the infectivity of supernatants of cell suspensions by the indirect immunoperoxidase staining procedure on HUVECs using a monoclonal antibody (mAb) reactive to the HCMV IE proteins. Plaques were microscopically counted, and the mean plaque counts for each peptide concentration were expressed as a percentage of the mean count of the controls. The number of plaques was plotted as a function of drug concentration, and the concentration producing a 50% reduction in plaque formation (IC50) was determined.
(§4) After 1 hour, they were infected with HCMV AD169 or HCMV AL1 at a M.O.I. of 1 PFU/cell. […] The cells and supernatants from the antiviral assay were then harvested and disrupted by sonication. The extent of virus replication was assessed by titrating the infectivity of supernatants of cell suspensions by standard plaque assay on HELFs.

[2] = tested on: HCMV clinical isolate AL1; settings: HELFs, M.O.I. 1, 6 days p.i.
Experimental: as §3, §4

in vitro = settings: human, 293TT cells
Experimental: The 293TT cell line derived from human embryonal kidney cells transformed with the SV40 large T antigen was cultured in Dulbecco's modified Eagle's medium (DMEM) (Gibco/BRL, Gaithersburg, Md., USA) supplemented with heat-inactivated 10% bovine serum (Gibco/BRL), Glutamax-I (Invitrogen, Carlsbad, Calif., USA) and nonessential aminoacids. This cell line allows high levels of protein to be expressed from vectors containing the SV40 origin due to overreplication of the expression plasmid (Buck et al., 2004).
Cells were seeded at a density of 5×10^4/well in 24-well plates; the next day they were treated with serially diluted peptides to generate dose-response curves. Forty-eight or 72 h after treatment, cell viability was determined by the 3-(4,5-dimethylthiazol-2-yl)-2,5-diphenyltetrazolium bromide (MTT) method; 50% cytotoxic concentration (CC50) values were determined using Prism.

HCMV VR1814 = settings: HUVECs, M.O.I. 1, 6 days p.i.
Experimental: as §3
The cells and supernatants from the antiviral assay were then harvested and disrupted by sonication.

Molecule	HIV-1 gag p24 content in culture supernatants (HIV-1IIIb; ELISA)	HIV-1 RNA load in culture supernatants (HIV-1IIIb; real time RT-PCR)	effect on HSV-1 attachment to Vero cells (HSV-1)	effect on HSV-2 attachment to Vero cells (HSV-2)	effect on HCMV attachment (adsorption) to HELF cells (HCMV AD169)	IC50 against HPV-16 PsV (HPV-16 PsV)	50% inhibition of HCMV AD169 replication (IC50) [1]	IC50, HCMV clinical isolate AL1 replication [2]	CC50 (in vitro)	IC50, endotheliotropic HCMV VR1814 replication (HCMV VR1814)
(NKKIRVRL)4-Lys2-Lys-β-Ala (also: tetramer on Lys2-Lys-β-Ala core) [SB104]	did not induce significant inhibition	did not induce significant inhibition	did not significantly reduce	did not significantly reduce	did not significantly reduce	–	–	–	–	–
CC[C@H](C)[C@H](NC(=O)[C@H](CCCNC(=N)N)NC(=O)[C@@H](NC(=O)[C@H](CCCNC(=N)N)NC(=O)[C@H](CC(C)C)NC(=O)[C@H](CO)NC(=O)[C@H](C)N)C(C)C)C(=O)N[C@@H](CCCCN)C(=O)N[C@@H](CCCCN)C(=O)N[C@@H](CCC(N)=O)C(=O)NCCCC[C@H](NC(=O)[C@H](CCC(N)=O)NC(=O)[C@H](CCCCN)NC(=O)[C@H](CCCCN)NC(=O)[C@@H](NC(=O)[C@H](CCCNC(=N)N)NC(=O)[C@@H](NC(=O)[C@H](CCCNC(=N)N)NC(=O)[C@H](CC(C)C)NC(=O)[C@H](CO)NC(=O)[C@H](C)N)C(C)C)[C@@H](C)CC)C(=O)NCCCC[C@H](NC(=O)[C@H](CCCCNC(=O)[C@H](CCC(N)=O)NC(=O)[C@H](CCCCN)NC(=O)[C@H](CCCCN)NC(=O)[C@@H](NC(=O)[C@H](CCCNC(=N)N)NC(=O)[C@@H](NC(=O)[C@H](CCCNC(=N)N)NC(=O)[C@H](CC(C)C)NC(=O)[C@H](CO)NC(=O)[C@H](C)N)C(C)C)[C@@H](C)CC)NC(=O)[C@H](CCC(N)=O)NC(=O)[C@H](CCCCN)NC(=O)[C@H](CCCCN)NC(=O)[C@@H](NC(=O)[C@H](CCCNC(=N)N)NC(=O)[C@@H](NC(=O)[C@H](CCCNC(=N)N)NC(=O)[C@H](CC(C)C)NC(=O)[C@H](CO)NC(=O)[C@H](C)N)C(C)C)[C@@H](C)CC)C(=O)NCCC(N)=O [SB105, (ASLRVRIKKQ)4-Lys2-Lys-β-Ala]	–	–	–	–	–	11.6 µg/mL (≈ 2.23 µM)	1.17 µg/mL	1.2 µg/mL (≈ 0.231 µM)	> 100 µg/mL	1.1 µg/mL (≈ 0.212 µM)
heparin	–	–	prevented virus adsorption	prevented virus adsorption	prevented virus adsorption	–	–	–	–	–
